Reference: patent publication US12162878B2 (HINOVA PHARMACEUTICALS INC., priority 2018, dated 2024)
Like-named read-outs stand apart in the source and are kept apart here.

Legend:
Vcap cells = assay: Inhibition of proliferation of Vcap cells (CCK-8); type: cell-based, human; details: for IC50: Homo sapiens, 144 h, 6 days, CCK-8
Procedure: (§1) • Vcap cell line (Cell Bank of Chinese Academy of Sciences, TCHu220) • FBS (Gibco, Cat. No. 10099-141) • 0.01M PBS (Biosharp, Cat. No. 162262) • DMEM HIGH Glucose (Hyclone, Cat. No. SH30243.01) • Penicillin-Streptomycin (Hyclone, Cat. No. SV30010) • Cell counting kit-8 (Signalway Antibody, Cat. No. CP002) • DMSO (Sigma, Cat. No. D5879) • Centrifuge Tube, 15 ml (Excell Bio, Cat. No. CS015-0001) • Cell Culture Dish, (Excell Bio, Cat. No. CS016-0128) • 96-well cell culture cluster (Corning, Cat. No. 3599) 2. Experimental Method
1) Vcap cells were subcultured in cell culture media, and the cells in good growth condition were seeded in a 96-well plate, 80 μL for each well, thus the number of cells per well was 10000, then the plate was cultured overnight in a 37° C., 5% CO2 cell incubator.
2) The drug was prepared with dimethyl sulfoxide (DMSO) as a 10 mM stock solution. Prior to use, the solution was diluted 3 times with DMSO, and then diluted with a 3-fold gradient to obtain 9 concentration gradients. Then, each concentration of the compound was further diluted 200 times with the culture media (to ensure that DMSO concentration in the culture system was 0.1%), 2 repeat wells for each concentration. The diluted solution of each compound (20 μL) was added to the cell culture well (with a final concentration of 10 μM, 3.3 μM, 1.1 μM . . . ), and shaken gently for mixing. In addition, three negative control wells containing only cells and three blank control wells containing only culture medium (20 μL DMSO diluted 200 times with culture medium being added to six wells) were included.
(§2) (1) After culturing for 6 days, 10 μL CCK-8 was added to each well and cultured for additional 2.5 h in a 37° C., 5% CO2 cell incubator.
(§3) (2) The absorbance (OD value) at 450 nm was measured with a multifunctional microplate reader.
(§4) (3) The data was analyzed by the Dose-response-inhibition equation in the software GraphPad Prism6, and the IC50 value was obtained.

CWR22RV1 cells = assay: Compound in combination with androgen receptor inhibitor HC-1119, proliferation of CWR22RV1 cells (CCK-8); type: cell-based, human; details: for IC50: Homo sapiens, CWR22Rv1, 144 h, 6 days, read-out: IC50 for inhibition on the activity of CWR22RV1
Procedure: as §1, with “CWR22RV1” for “Vcap”, “TCHu100)” for “TCHu220)”, “RIPM1640” for “DMEM HIGH Glucose”, “308090.01)” for “SH30243.01)”, “3599)” for “3599) 2.”, “Method:” for “Method”
1) CWR22RV1 cells were subcultured in cell culture media, and the cells in good growth condition were seeded in a 96-well plate, 60 μL for each well, thus the number of cells per well was 2000, then the plate was cultured overnight in a 37° C., 5% CO2 cell incubator.
2) The drug was prepared with dimethyl sulfoxide (DMSO) as a 10 mM stock solution. Prior to use, the solution was diluted 3 times with DMSO, and then diluted with a 3-fold gradient to obtain 9 concentration gradients. Then, each concentration of the compound was further diluted 200 times with the culture media (to ensure that DMSO concentration in the culture system was 0.1%), 2 repeat wells for each concentration. The diluted solution of each compound (20 μL) was added to the cell culture well (with a final concentration of 10 μM, 3.3 μM, 1.1 μM . . . ); while the solution of HC-1119 was diluted with culture media to the concentrations of 50 μM and 15 μM, respectively, and the diluted solution of HC-1119 was added to the corresponding cell culture well (with a final concentration of 10 μM, 3 μM), then shaken gently for mixing. In addition, three negative control wells containing only cells and three blank control wells containing only culture media (20 μL DMSO diluted 200 times with culture media being added to six wells) were included.
as §2, §3, §4

IC50 (Vcap cells) | SMILES | inhibitory action on Vcap cells (in words) (Vcap cells) | IC50 (CWR22RV1 cells; compound alone, CWR22RV1 cells) | IC50 (CWR22RV1 cells; in combination with 3 μM HC-1119, CWR22RV1 cells) | IC50 (CWR22RV1 cells; in combination with 10 μM HC-1119, CWR22RV1 cells) | effect of combination with HC-1119 on inhibitory action on CWR22RV1 cells (in words) (CWR22RV1 cells; in combination with HC-1119, CWR22RV1 cells)
15 nM | [2H]C([2H])([2H])n1cc(-c2cc(S(C)(=O)=O)ccc2N2CCC3(CC2)CC3(F)F)c2cc[nH]c2c1=O [Compound 184, 4-(2-(1,1-difluoro-6-aza-spiro[2.5]octan-6-yl)-5-(methylsulfonyl)phenyl)-6-trideuteromethyl-1H-pyrrolo[2,3-c]pyridin-7(6H)-one] | effective inhibitory action | 8.1 nM | 2 nM | 1.5 nM | improve the inhibitory action
17.6 nM | [2H]C([2H])([2H])n1cc(-c2cc(S(C)(=O)=O)c(F)cc2N2CCC3(CC2)CC3(F)F)c2cc[nH]c2c1=O [Compound 219, 4-(2-(1,1-difluoro-6-aza-spiro[2.5]octan-6-yl)-4-fluoro-5-(methylsulfonyl)phenyl)-6-trideuteromethyl-1H-pyrrolo[2,3-c]pyridin-7(6H)-one] | effective inhibitory action | – | – | – | –
